Key:
Staph. aureus L165 = assay: MIC, standard broth dilution test; format: cell-based, Staphylococcus aureus; details: Isosensitest broth, 24 h
[1] = tested on: Staph. epider midis L147 ATCC 12228 (coagulase negative); assay: MIC, standard broth dilution test; format: cell-based, Staphylococcus epidermidis; details: Isosensitest broth, 24 h; inoculum about 10^4-10^5 cfu/ml
Strep. pyogenes L49 C203 = assay: MIC, standard broth dilution test; format: cell-based, Streptococcus pyogenes; details: Todd-Hewitt broth, 24 h; inoculum about 10^4-10^5 cfu/ml
[2] = tested on: Strep. pneumoniae L44 UC41; assay: MIC, standard broth dilution test; format: cell-based, Streptococcus pneumoniae; details: Todd-Hewitt broth, 24 h; inoculum about 10^4-10^5 cfu/ml
[3] = tested on: Strep. faecalis L149 ATCC 7080; assay: MIC, standard broth dilution test; format: cell-based, Streptococcus faecalis; details: Isosensitest broth, 24 h; inoculum about 10^4-10^5 cfu/ml
[4] = tested on: Strep. mitis L796 (clinical isolate); assay: MIC, standard broth dilution test; format: cell-based, Streptococcus mitis; details: Todd-Hewitt broth, 24 h; inoculum about 10^4-10^5 cfu/ml
[5] = tested on: Neisseria gonorrhoeae L997 ISM68/126; assay: MIC, standard broth dilution test; format: cell-based; details: GC base broth +1% Isovitalex, 48 h, CO2-enriched atmosphere; inoculum about 10^4-10^5 cfu/ml
[6] = tested on: Haemophilus influenzae L 970 type b ATCC 19418; assay: MIC, standard broth dilution test; format: cell-based; details: Brain Heart broth +1% Supplement C, 48 h; inoculum about 10^4-10^5 cfu/ml
[7] = tested on: Escherichia coli L47 SKF 12140; assay: MIC, standard broth dilution test; format: cell-based; details: Isosensitest broth, 24 h; inoculum about 10^4-10^5 cfu/ml
[8] = tested on: Proteus vulgaris L79 X19H ATCC881; format: cell-based; details: Isosensitest broth, 24 h (Gram-negative bacteria); inoculum about 10^4-10^5 cfu/ml
[9] = tested on: Pseudomonas aeruginosa L4 ATCC10145; assay: MIC, standard broth dilution test; format: cell-based; details: Isosensitest broth, 24 h (Gram-negative bacteria); inoculum about 10^4-10^5 cfu/ml
[10] = tested on: Staph. haemolyticus L602 (clinical isolate); assay: MIC, standard broth dilution test; format: cell-based, Staphylococcus haemolyticus; details: Isosensitest broth, 24 h; inoculum about 10^4-10^5 cfu/ml
[11] = Staph. aureus (30% bovine serum)
[12] = Staph. aureus L165, inoculum about 10^4-10^5 cfu/ml

CC(=O)N[C@H]1[C@H](OC2c3ccc(c(Cl)c3)Oc3cc4cc(c3O[C@@H]3O[C@H](CO)[C@@H](O)[C@H](O)[C@H]3NC(=O)CCCCCCCC(C)C)Oc3ccc(cc3Cl)CC3NC(=O)C(N)c5ccc(O)c(c5)Oc5cc(O)cc(c5)C(NC3=O)C(=O)NC4C(=O)NC3C(=O)NC2C(=O)NC(C(=O)O)c2cc(O)cc(O)c2-c2cc3ccc2O)O[C@H](CO)[C@@H](O)[C@@H]1O (some centres unmarked) [DM-TA2-5, de-mannosyl teicoplanin complex component 5]
M.I.C. (Staph. aureus L165; Staph. aureus (10^6 cfu/ml)): 0.125 microgram/ml
M.I.C. (Staph. aureus L165; [11]): 0.5 microgram/ml
M.I.C. (Staph. aureus L165; [12]): 0.063 microgram/ml
M.I.C. [1]: 0.063 microgram/ml
M.I.C. (Strep. pyogenes L49 C203): 0.063 microgram/ml
M.I.C. [2]: 0.063 microgram/ml
M.I.C. [3]: 0.063 microgram/ml
M.I.C. [4]: 0.063 microgram/ml
M.I.C. [5]: 32 microgram/ml
M.I.C. [6]: 32 microgram/ml
M.I.C. [7]: > 128 microgram/ml
M.I.C. [8]: > 128 microgram/ml
M.I.C. [9]: > 128 microgram/ml
M.I.C. [10]: 0.25 microgram/ml

CC(=O)N[C@H]1[C@H](OC2c3ccc(c(Cl)c3)Oc3cc4cc(c3O[C@@H]3O[C@H](CO)[C@@H](O)[C@H](O)[C@H]3NC(=O)CCCCCCC(C)C)Oc3ccc(cc3Cl)CC3NC(=O)C(N)c5ccc(O)c(c5)Oc5cc(O)cc(c5)C(NC3=O)C(=O)NC4C(=O)NC3C(=O)NC2C(=O)NC(C(=O)O)c2cc(O)cc(O)c2-c2cc3ccc2O)O[C@H](CO)[C@@H](O)[C@@H]1O (some centres unmarked) [DM-TA2-2, de-mannosyl teicoplanin complex component 2]
M.I.C. (Staph. aureus L165; Staph. aureus (10^6 cfu/ml)): 0.125 microgram/ml
M.I.C. (Staph. aureus L165; [11]): 0.5 microgram/ml
M.I.C. (Staph. aureus L165; [12]): 0.063 microgram/ml
M.I.C. [1]: 0.063 microgram/ml
M.I.C. (Strep. pyogenes L49 C203): 0.063 microgram/ml
M.I.C. [2]: 0.063 microgram/ml
M.I.C. [3]: 0.063 microgram/ml
M.I.C. [4]: 0.063 microgram/ml
M.I.C. [5]: 32 microgram/ml
M.I.C. [6]: 64 microgram/ml
M.I.C. [7]: > 128 microgram/ml
M.I.C. [8]: > 128 microgram/ml
M.I.C. [9]: > 128 microgram/ml
M.I.C. [10]: 0.5 microgram/ml

CCCCCCCCCC(=O)N[C@H]1[C@H](Oc2c3cc4cc2Oc2ccc(cc2Cl)C(O[C@@H]2O[C@H](CO)[C@@H](O)[C@H](O)[C@H]2NC(C)=O)C2NC(=O)C(NC(=O)C4NC(=O)C4NC(=O)C(Cc5ccc(c(Cl)c5)O3)NC(=O)C(N)c3ccc(O)c(c3)Oc3cc(O)cc4c3)c3ccc(O)c(c3)-c3c(O)cc(O)cc3C(C(=O)O)NC2=O)O[C@H](CO)[C@@H](O)[C@@H]1O (some centres unmarked) [DM-TA2-3, de-mannosyl teicoplanin complex component 3]
M.I.C. (Staph. aureus L165; Staph. aureus (10^6 cfu/ml)): 0.125 microgram/ml
M.I.C. (Staph. aureus L165; [11]): 0.5 microgram/ml
M.I.C. (Staph. aureus L165; [12]): 0.063 microgram/ml
M.I.C. [1]: 0.063 microgram/ml
M.I.C. (Strep. pyogenes L49 C203): 0.063 microgram/ml
M.I.C. [2]: 0.063 microgram/ml
M.I.C. [3]: 0.063 microgram/ml
M.I.C. [4]: 0.063 microgram/ml
M.I.C. [5]: 32 microgram/ml
M.I.C. [6]: 64 microgram/ml
M.I.C. [7]: > 128 microgram/ml
M.I.C. [8]: > 128 microgram/ml
M.I.C. [9]: 128 microgram/ml
M.I.C. [10]: 0.5 microgram/ml

CCC(C)CCCCCCC(=O)N[C@H]1[C@H](Oc2c3cc4cc2Oc2ccc(cc2Cl)C(O[C@@H]2O[C@H](CO)[C@@H](O)[C@H](O)[C@H]2NC(C)=O)C2NC(=O)C(NC(=O)C4NC(=O)C4NC(=O)C(Cc5ccc(c(Cl)c5)O3)NC(=O)C(N)c3ccc(O)c(c3)Oc3cc(O)cc4c3)c3ccc(O)c(c3)-c3c(O)cc(O)cc3C(C(=O)O)NC2=O)O[C@H](CO)[C@@H](O)[C@@H]1O (some centres unmarked) [DM-TA2-4, de-mannosyl teicoplanin complex component 4]
M.I.C. (Staph. aureus L165; Staph. aureus (10^6 cfu/ml)): 0.25 microgram/ml
M.I.C. (Staph. aureus L165; [11]): 0.5 microgram/ml
M.I.C. (Staph. aureus L165; [12]): 0.125 microgram/ml
M.I.C. [1]: 0.063 microgram/ml
M.I.C. (Strep. pyogenes L49 C203): 0.063 microgram/ml
M.I.C. [2]: 0.063 microgram/ml
M.I.C. [3]: 0.063 microgram/ml
M.I.C. [4]: 0.125 microgram/ml
M.I.C. [5]: 32 microgram/ml
M.I.C. [6]: 64 microgram/ml
M.I.C. [7]: > 128 microgram/ml
M.I.C. [8]: > 128 microgram/ml
M.I.C. [9]: > 128 microgram/ml
M.I.C. [10]: 0.5 microgram/ml
